Test results: a compilation of properties of binary mixtures (doi:10.1021/acs.jpcb.7b01654)

Experiment: xn = mol fraction of the nth substance listed
Settings: 100 kPa

CC[n+]1ccn(C)c1.O=S(=O)([N-]S(=O)(=O)C(F)(F)F)C(F)(F)F + CCCCCCCCCCCC[n+]1ccn(C)c1.O=S(=O)([N-]S(=O)(=O)C(F)(F)F)C(F)(F)F
x2 = 0
Settings | viscosity [mPa·s]
283 K | 56.8
288 K | 44.6
298 K | 29.7
303 K | 24.8
308 K | 21
318 K | 15.57
323 K | 13.28

CCCCCCCCCCCC[n+]1ccn(C)c1.O=S(=O)([N-]S(=O)(=O)C(F)(F)F)C(F)(F)F + CC[n+]1ccn(C)c1.O=S(=O)([N-]S(=O)(=O)C(F)(F)F)C(F)(F)F
viscosity [mPa·s]
Settings | 293 K | 298 K | 303 K | 308 K | 313 K | 318 K | 323 K | 328 K | 333 K
x1 = 0.01 | 36.2 | 29.4 | 24.3 | 20.5 | 17.6 | 15.26 | 13.19 | 11.69 | 10.4
x1 = 0.04 | 37.9 | 30.8 | 25.5 | 21.5 | 18.4 | 15.96 | 13.82 | – | 10.81
x1 = 0.08 | 41.4 | 33.5 | 27.6 | 23.2 | 19.8 | 17 | – | 12.89 | 11.37
x1 = 0.16 | 47.6 | – | – | 26.1 | 22.1 | 19 | 16 | 14.06 | –
x1 = 0.24 | 57.4 | 45.7 | – | 30.7 | 25.7 | 21.9 | 18.6 | 16.17 | 14.13
x1 = 0.32 | 69.1 | 54.2 | 43.6 | 35.6 | 29.6 | 24.8 | – | 18 | 15.5
x1 = 0.43 | 85.1 | 66 | 52.4 | 42.4 | 34.8 | 28.9 | 23.8 | 20.4 | 17.6
x1 = 0.52 | 94.7 | 73.2 | 57.7 | 46.6 | 38.3 | 31.7 | 26.1 | 22.2 | 19.1
x1 = 0.63 | 116 | 88.7 | 69.3 | 55.3 | 44.8 | 36.9 | 30.3 | 25.5 | 21.7
x1 = 0.74 | 137 | 104 | 80.6 | – | 51.3 | 42 | – | 28.7 | 24.1
x1 = 0.87 | 158 | 119 | 91.7 | 71.9 | 57.4 | 46.5 | 37.4 | 31.1 | 26.1
x1 = 0.92 | 182 | 135 | 102 | 79 | 62.1 | 49.8 | 40.2 | 33 | –
x1 = 0.96 | – | 149 | 114 | – | – | 56.2 | 45.5 | 37.4 | 31.2
x1 = 1 | 193 | 143 | – | 84 | 66.2 | 53 | 42.65 | 34.9 | 28.87
x2 = 0.01 | 199 | 149 | 113 | 88.4 | 70 | 56.3 | – | 37.5 | 31.3
